# Experimental data published in the supplement of paper PMC10307832.
# What was measured:
# Experiment in all cases: relative viability (nuclei count vs DMSO), 5 days (fraction); higher = more cells survive
# [1] = test system: EMC-BAC-2
# Outline: (§1)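 Relative viability divides the nuclei count in treated wells by that in vehicle wells. Lung cancer cell lines were seeded in 1536-well plates, dosed by pin tool the next day, and fixed and stained after 5 days in one step with final 0.05% Triton X-100, 1% formaldehyde and 1 ug/ml Hoechst. Dosing was a single drug or a fixed anchor-drug dose plus five library-drug doses (not always all listed) in √10 steps, and values are medians of duplicate plates imaged at 4×.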
# [2] = test system: EPLC-272H
# Outline: as §1
# [3] = test system: H3255
# Outline: as §1
# [4] = test system: HOP-62
# Outline: as §1
# [5] = test system: LCLC-97TM1
# Outline: as §1
# [6] = test system: LXF-289
# Outline: as §1
# [7] = test system: NCI-H1563
# Outline: as §1
# [8] = test system: NCI-H1650
# Outline: as §1
# [9] = test system: NCI-H1915
# Outline: as §1
# [10] = test system: NCI-H1993
# Outline: as §1
# [11] = test system: NCI-H2009
# Outline: as §1
# [12] = test system: NCI-H2023
# Outline: as §1
# [13] = test system: NCI-H2085
# Outline: as §1
# [14] = test system: NCI-H2126
# Outline: as §1
# [15] = test system: NCI-H2347
# Outline: as §1
# [16] = test system: NCI-H322M
# Outline: as §1
# [17] = test system: NCI-H647
# Outline: as §1
# [18] = test system: NCI-H661
# Outline: as §1
# [19] = test system: NCI-H727
# Outline: as §1
# [20] = test system: PC-14
# Outline: as §1
# [21] = test system: SK-LU-1
# Outline: as §1
# [22] = test system: SW 1573
# Outline: as §1
smiles,measurement,setting,value
Oc1nc(-c2ccc(C(F)(F)F)cc2)nc2c1CSCC2 [XAV939] + CS(=O)(=O)CCNCc1ccc(-c2ccc3ncnc(Nc4ccc(OCc5cccc(F)c5)c(Cl)c4)c3c2)o1 [Lapatinib] (partner 2 µM),relative viability,[1]; first compound 0.08 µM,1.01
same,relative viability,[1]; first compound 0.253 µM,0.821
same,relative viability,[1]; first compound 0.8 µM,0.837
same,relative viability,[1]; first compound 2.53 µM,0.681
same,relative viability,[2]; first compound 0.08 µM,1.06
same,relative viability,[2]; first compound 0.253 µM,0.893
same,relative viability,[2]; first compound 0.8 µM,1
same,relative viability,[2]; first compound 2.53 µM,0.864
same,relative viability,[3]; first compound 0.08 µM,0.19
same,relative viability,[3]; first compound 0.253 µM,0.238
same,relative viability,[3]; first compound 0.8 µM,0.233
same,relative viability,[3]; first compound 2.53 µM,0.186
same,relative viability,[4]; first compound 0.08 µM,1.1
same,relative viability,[4]; first compound 0.253 µM,0.963
same,relative viability,[4]; first compound 0.8 µM,0.918
same,relative viability,[4]; first compound 2.53 µM,0.735
same,relative viability,[5]; first compound 0.08 µM,1.11
same,relative viability,[5]; first compound 0.253 µM,0.959
same,relative viability,[5]; first compound 0.8 µM,0.668
same,relative viability,[5]; first compound 2.53 µM,0.81
same,relative viability,[6]; first compound 0.08 µM,0.898
same,relative viability,[6]; first compound 0.253 µM,0.826
same,relative viability,[6]; first compound 0.8 µM,0.897
same,relative viability,[6]; first compound 2.53 µM,0.919
same,relative viability,[7]; first compound 0.08 µM,1.15
same,relative viability,[7]; first compound 0.253 µM,0.852
same,relative viability,[7]; first compound 0.8 µM,0.809
same,relative viability,[7]; first compound 2.53 µM,0.773
same,relative viability,[8]; first compound 0.08 µM,0.762
same,relative viability,[8]; first compound 0.253 µM,0.726
same,relative viability,[8]; first compound 0.8 µM,0.836
same,relative viability,[8]; first compound 2.53 µM,0.454
same,relative viability,[9]; first compound 0.08 µM,1.13
same,relative viability,[9]; first compound 0.253 µM,0.934
same,relative viability,[9]; first compound 0.8 µM,1.05
same,relative viability,[9]; first compound 2.53 µM,0.993
same,relative viability,[10]; first compound 0.8 µM,0.866
same,relative viability,[10]; first compound 2.53 µM,0.702
same,relative viability,[11]; first compound 0.08 µM,1.08
same,relative viability,[11]; first compound 0.253 µM,0.819
same,relative viability,[11]; first compound 0.8 µM,0.842
same,relative viability,[11]; first compound 2.53 µM,0.771
same,relative viability,[12]; first compound 0.08 µM,0.737
same,relative viability,[12]; first compound 0.253 µM,0.723
same,relative viability,[12]; first compound 0.8 µM,0.674
same,relative viability,[12]; first compound 2.53 µM,0.622
same,relative viability,[13]; first compound 0.08 µM,0.692
same,relative viability,[13]; first compound 0.253 µM,0.699
same,relative viability,[13]; first compound 0.8 µM,0.743
same,relative viability,[13]; first compound 2.53 µM,0.649
same,relative viability,[14]; first compound 0.08 µM,0.739
same,relative viability,[14]; first compound 0.253 µM,0.583
same,relative viability,[14]; first compound 0.8 µM,0.667
same,relative viability,[14]; first compound 2.53 µM,0.585
same,relative viability,[15]; first compound 0.08 µM,0.944
same,relative viability,[15]; first compound 0.253 µM,0.708
same,relative viability,[15]; first compound 0.8 µM,0.805
same,relative viability,[15]; first compound 2.53 µM,0.672
same,relative viability,[16]; first compound 0.08 µM,0.602
same,relative viability,[16]; first compound 0.253 µM,0.57
same,relative viability,[16]; first compound 0.8 µM,0.599
same,relative viability,[16]; first compound 2.53 µM,0.426
same,relative viability,[17]; first compound 0.08 µM,0.91
same,relative viability,[17]; first compound 0.253 µM,0.854
same,relative viability,[17]; first compound 0.8 µM,0.987
same,relative viability,[17]; first compound 2.53 µM,0.921
same,relative viability,[18]; first compound 0.08 µM,0.553
same,relative viability,[18]; first compound 0.253 µM,0.482
same,relative viability,[18]; first compound 0.8 µM,0.595
same,relative viability,[18]; first compound 2.53 µM,0.372
same,relative viability,[19]; first compound 0.08 µM,1.14
same,relative viability,[19]; first compound 0.253 µM,0.589
same,relative viability,[19]; first compound 0.8 µM,0.759
same,relative viability,[19]; first compound 2.53 µM,0.877
same,relative viability,[20]; first compound 0.08 µM,0.301
same,relative viability,[20]; first compound 0.253 µM,0.307
same,relative viability,[20]; first compound 0.8 µM,0.262
same,relative viability,[20]; first compound 2.53 µM,0.266
same,relative viability,[21]; first compound 0.08 µM,0.858
same,relative viability,[21]; first compound 0.253 µM,0.845
same,relative viability,[21]; first compound 0.8 µM,0.863
same,relative viability,[21]; first compound 2.53 µM,0.906
same,relative viability,[22]; first compound 0.08 µM,1.11
same,relative viability,[22]; first compound 0.253 µM,0.908
same,relative viability,[22]; first compound 0.8 µM,1.07
same,relative viability,[22]; first compound 2.53 µM,0.983
Oc1nc(-c2ccc(C(F)(F)F)cc2)nc2c1CSCC2 [XAV939] + CC(C)C[C@H](NC(=O)[C@H](Cc1ccccc1)NC(=O)c1cnccn1)B(O)O [Bortezomib] (partner 0.002 µM),relative viability,[1]; first compound 0.08 µM,1.11
same,relative viability,[1]; first compound 0.253 µM,0.946
same,relative viability,[1]; first compound 0.8 µM,0.997
same,relative viability,[1]; first compound 2.53 µM,0.636
same,relative viability,[2]; first compound 0.08 µM,1.05
same,relative viability,[2]; first compound 0.253 µM,0.816
same,relative viability,[2]; first compound 0.8 µM,1.02
same,relative viability,[2]; first compound 2.53 µM,0.91
same,relative viability,[3]; first compound 0.08 µM,1.05
same,relative viability,[3]; first compound 0.253 µM,0.716
same,relative viability,[3]; first compound 0.8 µM,0.62
same,relative viability,[3]; first compound 2.53 µM,0.853
same,relative viability,[4]; first compound 0.08 µM,1.19
same,relative viability,[4]; first compound 0.253 µM,0.73
same,relative viability,[4]; first compound 0.8 µM,0.988
same,relative viability,[4]; first compound 2.53 µM,0.352
same,relative viability,[5]; first compound 0.08 µM,0.589
same,relative viability,[5]; first compound 0.253 µM,0.517
same,relative viability,[5]; first compound 0.8 µM,0.472
same,relative viability,[5]; first compound 2.53 µM,0.505
same,relative viability,[6]; first compound 0.08 µM,1.05
same,relative viability,[6]; first compound 0.253 µM,0.966
same,relative viability,[6]; first compound 0.8 µM,0.994
same,relative viability,[6]; first compound 2.53 µM,1.05
same,relative viability,[7]; first compound 0.08 µM,0.835
same,relative viability,[7]; first compound 0.253 µM,0.81
same,relative viability,[7]; first compound 0.8 µM,0.798
same,relative viability,[7]; first compound 2.53 µM,0.764
same,relative viability,[8]; first compound 0.08 µM,0.178
same,relative viability,[8]; first compound 0.253 µM,0.211
same,relative viability,[8]; first compound 0.8 µM,0.222
same,relative viability,[8]; first compound 2.53 µM,0.215
same,relative viability,[9]; first compound 0.08 µM,1.06
same,relative viability,[9]; first compound 0.253 µM,0.974
same,relative viability,[9]; first compound 0.8 µM,0.983
same,relative viability,[9]; first compound 2.53 µM,1.14
same,relative viability,[10]; first compound 0.8 µM,0.972
same,relative viability,[10]; first compound 2.53 µM,0.891
same,relative viability,[11]; first compound 0.08 µM,1.17
same,relative viability,[11]; first compound 0.253 µM,0.901
same,relative viability,[11]; first compound 0.8 µM,0.936
same,relative viability,[11]; first compound 2.53 µM,0.915
same,relative viability,[12]; first compound 0.08 µM,1.11
same,relative viability,[12]; first compound 0.253 µM,0.785
same,relative viability,[12]; first compound 0.8 µM,0.833
same,relative viability,[12]; first compound 2.53 µM,0.792
same,relative viability,[13]; first compound 0.08 µM,1.02
same,relative viability,[13]; first compound 0.253 µM,1.03
same,relative viability,[13]; first compound 0.8 µM,0.975
same,relative viability,[13]; first compound 2.53 µM,0.992
same,relative viability,[14]; first compound 0.08 µM,1.18
same,relative viability,[14]; first compound 0.253 µM,0.984
same,relative viability,[14]; first compound 0.8 µM,1.08
same,relative viability,[14]; first compound 2.53 µM,1.02
same,relative viability,[15]; first compound 0.08 µM,1.27
same,relative viability,[15]; first compound 0.253 µM,0.75
same,relative viability,[15]; first compound 0.8 µM,1.02
same,relative viability,[15]; first compound 2.53 µM,0.837
same,relative viability,[16]; first compound 0.08 µM,1.39
same,relative viability,[16]; first compound 0.253 µM,0.996
same,relative viability,[16]; first compound 0.8 µM,1.1
same,relative viability,[16]; first compound 2.53 µM,0.976
same,relative viability,[17]; first compound 0.08 µM,1.16
same,relative viability,[17]; first compound 0.253 µM,0.747
same,relative viability,[17]; first compound 0.8 µM,0.81
same,relative viability,[17]; first compound 2.53 µM,0.988
same,relative viability,[18]; first compound 0.08 µM,0.866
same,relative viability,[18]; first compound 0.253 µM,0.707
same,relative viability,[18]; first compound 0.8 µM,0.95
same,relative viability,[18]; first compound 2.53 µM,0.495
same,relative viability,[19]; first compound 0.08 µM,1.05
same,relative viability,[19]; first compound 0.253 µM,0.589
same,relative viability,[19]; first compound 0.8 µM,0.803
same,relative viability,[19]; first compound 2.53 µM,0.957
same,relative viability,[20]; first compound 0.08 µM,0.825
same,relative viability,[20]; first compound 0.253 µM,0.808
same,relative viability,[20]; first compound 0.8 µM,0.846
same,relative viability,[20]; first compound 2.53 µM,0.794
same,relative viability,[21]; first compound 0.08 µM,1.16
same,relative viability,[21]; first compound 0.253 µM,1.13
same,relative viability,[21]; first compound 0.8 µM,1.05
same,relative viability,[21]; first compound 2.53 µM,1.39
same,relative viability,[22]; first compound 0.08 µM,0.994
same,relative viability,[22]; first compound 0.253 µM,1.01
same,relative viability,[22]; first compound 0.8 µM,1.1
same,relative viability,[22]; first compound 2.53 µM,0.676
